Experiments:
Assay type in all cases: functional
[1] = system: SK-MEL-28; experiment: Growth inhibition of human SK-MEL-28 cells assessed as cell growth at 10^-6 M by sulforhodamine B assay; conditions: read-out: Activity
[2] = system: DU-145; experiment: Growth inhibition of human DU145 cells assessed as cell growth at 10^-6 M by sulforhodamine B assay; conditions: read-out: Activity
[3] = system: SW-620; experiment: Growth inhibition of human SW620 cells assessed as cell growth at 10^-4 M by sulforhodamine B assay; conditions: read-out: Activity
[4] = system: OVCAR-8; experiment: Growth inhibition of human OVCAR8 cells by sulforhodamine B assay
[5] = system: 786-0; experiment: Growth inhibition of human 786-0 cells assessed as cell growth at 10^-4 M by sulforhodamine B assay; conditions: read-out: Activity
[6] = system: OVCAR-4; experiment: Growth inhibition of human OVCAR4 cells by sulforhodamine B assay
[7] = system: SF-539; experiment: Growth inhibition of human SF539 cells assessed as cell growth at 10^-6 M by sulforhodamine B assay; conditions: read-out: Activity
[8] = system: SK-MEL-2; experiment: Growth inhibition of human SK-MEL-2 cells assessed as cell growth at 10^-6 M by sulforhodamine B assay; conditions: read-out: Activity
[9] = system: CCRF-CEM; experiment: Growth inhibition of human CCRF-CEM cells assessed as cell growth at 10^-6 M by sulforhodamine B assay; conditions: read-out: Activity
[10] = system: COLO 205; experiment: Growth inhibition of human COLO205 cells assessed as cell growth at 10^-7 M by sulforhodamine B assay; conditions: read-out: Activity
[11] = system: U-251; experiment: Growth inhibition of human U251 cells assessed as cell growth at 10^-8 M by sulforhodamine B assay; conditions: read-out: Activity
[12] = system: A498; experiment: Growth inhibition of human A498 cells assessed as cell growth at 10^-6 M by sulforhodamine B assay; conditions: read-out: Activity
[13] = system: HL-60(TB); experiment: Growth inhibition of human HL-60(TB) cells assessed as cell growth at 10^-8 M by sulforhodamine B assay; conditions: read-out: Activity
[14] = system: HCT-116; experiment: Growth inhibition of human HCT116 cells assessed as cell growth at 10^-6 M by sulforhodamine B assay; conditions: read-out: Activity
[15] = system: CCRF-CEM; experiment: Growth inhibition of human CCRF-CEM cells assessed as cell growth at 10^-7 M by sulforhodamine B assay; conditions: read-out: Activity
[16] = system: UACC-257; experiment: Growth inhibition of human UACC257 cells by sulforhodamine B assay
[17] = Growth inhibition of human NCI-ADR-RES cells assessed as cell growth at 10^-7 M by sulforhodamine B assay; conditions: read-out: Activity
[18] = system: LOX IMVI; experiment: Growth inhibition of human LOXIMVI cells by sulforhodamine B assay
[19] = system: TK-10; experiment: Growth inhibition of human TK10 cells assessed as cell growth at 10^-4 M by sulforhodamine B assay; conditions: read-out: Activity
[20] = system: SW-620; experiment: Growth inhibition of human SW620 cells assessed as cell growth at 10^-7 M by sulforhodamine B assay; conditions: read-out: Activity
[21] = system: UACC-62; experiment: Growth inhibition of human UACC62 cells assessed as cell growth at 10^-4 M by sulforhodamine B assay; conditions: read-out: Activity
[22] = system: SF-295; experiment: Growth inhibition of human SF295 cells assessed as cell growth at 10^-8 M by sulforhodamine B assay; conditions: read-out: Activity
[23] = system: OVCAR-8; experiment: Growth inhibition of human OVCAR8 cells assessed as cell growth at 10^-6 M by sulforhodamine B assay; conditions: read-out: Activity
[24] = Growth inhibition of human HCC2998 cells assessed as cell growth at 10^-6 M by sulforhodamine B assay; conditions: HCC 2998, read-out: Activity
[25] = system: OVCAR-4; experiment: Growth inhibition of human OVCAR4 cells assessed as cell growth at 10^-8 M by sulforhodamine B assay; conditions: read-out: Activity
[26] = system: NCI-H322M; experiment: Growth inhibition of human NCI-H322M cells assessed as cell growth at 10^-7 M by sulforhodamine B assay; conditions: read-out: Activity
[27] = system: COLO 205; experiment: Growth inhibition of human COLO205 cells assessed as cell growth at 10^-6 M by sulforhodamine B assay; conditions: read-out: Activity
[28] = system: MDA-MB-231; experiment: Growth inhibition of human MDA-MB-231 cells assessed as cell growth at 10^-7 M by sulforhodamine B assay; conditions: read-out: Activity
[29] = system: SN12C; experiment: Growth inhibition of human SN12C cells assessed as cell growth at 10^-8 M by sulforhodamine B assay; conditions: read-out: Activity
[30] = system: ACHN; experiment: Growth inhibition of human ACHN cells assessed as cell growth at 10^-7 M by sulforhodamine B assay; conditions: read-out: Activity
[31] = system: SR; experiment: Growth inhibition of human SR cells by sulforhodamine B assay
[32] = system: HT-29; experiment: Growth inhibition of human HT-29 cells assessed as cell growth at 10^-6 M by sulforhodamine B assay; conditions: read-out: Activity
[33] = system: SW-620; experiment: Growth inhibition of human SW620 cells assessed as cell growth at 10^-6 M by sulforhodamine B assay; conditions: read-out: Activity
[34] = system: SK-OV-3; experiment: Growth inhibition of human SKOV3 cells assessed as cell growth at 10^-7 M by sulforhodamine B assay; conditions: read-out: Activity
[35] = system: OVCAR-4; experiment: Growth inhibition of human OVCAR4 cells assessed as cell growth at 10^-6 M by sulforhodamine B assay; conditions: read-out: Activity
[36] = system: Malme-3M; experiment: Growth inhibition of human MALME-3M cells assessed as cell growth at 10^-7 M by sulforhodamine B assay; conditions: read-out: Activity
[37] = system: KM12; experiment: Growth inhibition of human KM12 cells assessed as cell growth at 10^-6 M by sulforhodamine B assay; conditions: read-out: Activity
[38] = system: NCI-H460; experiment: Growth inhibition of human NCI-H460 cells assessed as cell growth at 10^-4 M by sulforhodamine B assay; conditions: read-out: Activity
[39] = system: TK-10; experiment: Growth inhibition of human TK10 cells assessed as cell growth at 10^-8 M by sulforhodamine B assay; conditions: read-out: Activity
[40] = system: HT-29; experiment: Growth inhibition of human HT-29 cells assessed as cell growth at 10^-8 M by sulforhodamine B assay; conditions: read-out: Activity
[41] = system: M14; experiment: Growth inhibition of human M14 cells assessed as cell growth at 10^-7 M by sulforhodamine B assay; conditions: read-out: Activity
[42] = system: LOX IMVI; experiment: Growth inhibition of human LOXIMVI cells assessed as cell growth at 10^-7 M by sulforhodamine B assay; conditions: read-out: Activity
[43] = system: CAKI-1; experiment: Growth inhibition of human CAKI-1 cells assessed as cell growth at 10^-8 M by sulforhodamine B assay; conditions: read-out: Activity
[44] = read-out: LC50 (the source's name)
[45] = read-out: pLC50 (the source's name) (converted)

SMILES: CC(C)=CC(=O)O[C@@H]1CC(C)(C)C[C@H]2C3=CC[C@@H]4[C@@]5(C)CC[C@H](O)C(C)(C)[C@@H]5CC[C@@]4(C)[C@]3(C)CC[C@@]12C(=O)O [Reduced Lantadene B]
- growth at 1 µM [1]: 97%
- growth at 1 µM [2]: 94%
- growth at 100 µM [3]: -15%
- GI50 ([4]; read-out: GI50): 4.68 µM
- CC50 [4, 44]: > 100 µM
- TGI ([4]; read-out: TGI): 28.9 µM
- GI50 ([4]; read-out: pGI50 (converted)): 4.68 µM
- CC50 [4, 45]: > 100 µM
- TGI ([4]; read-out: pTGI (converted)): 28.8 µM
- growth at 100 µM [5]: -73%
- GI50 ([6]; read-out: GI50): 8.59 µM
- CC50 [6, 44]: > 100 µM
- TGI ([6]; read-out: TGI): 35.6 µM
- GI50 ([6]; read-out: pGI50 (converted)): 8.51 µM
- CC50 [6, 45]: > 100 µM
- TGI ([6]; read-out: pTGI (converted)): 35.5 µM
- growth at 1 µM [7]: 92%
- growth at 1 µM [8]: 107%
- growth at 1 µM [9]: 75%
- growth at 0.1 µM [10]: 97%
- growth at 0.01 µM [11]: 96%
- growth at 1 µM [12]: 79%
- growth at 0.01 µM [13]: 101%
- growth at 1 µM [14]: 72%
- growth at 0.1 µM [15]: 102%
- GI50 ([16]; read-out: GI50): 14.5 µM
- CC50 [16, 44]: > 100 µM
- TGI ([16]; read-out: TGI): 45.6 µM
- GI50 ([16]; read-out: pGI50 (converted)): 14.5 µM
- CC50 [16, 45]: > 100 µM
- TGI ([16]; read-out: pTGI (converted)): 45.7 µM
- growth at 0.1 µM [17]: 99%
- GI50 ([18]; read-out: GI50): 9.09 µM
- CC50 [18, 44]: > 100 µM
- TGI ([18]; read-out: TGI): 38.2 µM
- GI50 ([18]; read-out: pGI50 (converted)): 9.12 µM
- CC50 [18, 45]: > 100 µM
- TGI ([18]; read-out: pTGI (converted)): 38 µM
- growth at 100 µM [19]: -68%
- growth at 0.1 µM [20]: 95%
- growth at 100 µM [21]: -81%
- growth at 0.01 µM [22]: 95%
- growth at 1 µM [23]: 82%
- growth at 1 µM [24]: 96%
- growth at 0.01 µM [25]: 100%
- growth at 0.1 µM [26]: 89%
- growth at 1 µM [27]: 102%
- growth at 0.1 µM [28]: 97%
- growth at 0.01 µM [29]: 101%
- growth at 0.1 µM [30]: 93%
- GI50 ([31]; read-out: GI50): 5.04 µM
- CC50 [31, 44]: > 100 µM
- TGI ([31]; read-out: TGI): 35.4 µM
- GI50 ([31]; read-out: pGI50 (converted)): 5.01 µM
- CC50 [31, 45]: > 100 µM
- TGI ([31]; read-out: pTGI (converted)): 35.5 µM
- growth at 1 µM [32]: 89%
- growth at 1 µM [33]: 87%
- growth at 0.1 µM [34]: 103%
- growth at 1 µM [35]: 83%
- growth at 0.1 µM [36]: 94%
- growth at 1 µM [37]: 48%
- growth at 100 µM [38]: -4%
- growth at 0.01 µM [39]: 92%
- growth at 0.01 µM [40]: 91%
- growth at 0.1 µM [41]: 90%
- growth at 0.1 µM [42]: 93%
- growth at 0.01 µM [43]: 97%

From ChEMBL document CHEMBL2413072, “Synthesis and in vitro anticancer studies of novel C-2 arylidene congeners of lantadenes” (2013)
